The results in this text go back to PubChem BioAssay AID2423 (Broad Institute, 2010).

Results filed as inconclusive are left out. Calls of active or inactive are those of the source. How the calls were made is not given here.

The test system of the assay is C. albicans CaCi-8 + fluconazole, Alamar Blue growth, 48 h. Description: resistant C. albicans growth inhibition with fluconazole, dose response, CaCi-8 strain, Alamar Blue fluorescence (AID 2423). A general note: Resazurin is reduced to fluorescent resorufin, in cell work by metabolically active cells.
Broadly, the EC50 is the concentration giving half of the maximal effect. Take `CC1(C)C(O)=C(c2nc3ccccc3[nH]2)C(=N)N1c1ccccc1`: the 50% effective concentration (EC50) is 9.82 µM.
On to `Cc1cc(Sc2ncnc(N)c2[N+](=O)[O-])ncn1`, for which the half-maximal effective concentration (EC50) is 0.659 µM.
Consider `CCOC(=O)C1CCN(C(=O)c2ccc3c(=O)n4nc(Nc5cc(C)ccc5C)sc4nc3c2)CC1`, for which the concentration for a half-maximal effect (EC50) was 0.4 µM.
In the case of `O=[N+]([O-])c1nn(-c2ccc(Cl)cc2)n(O)c1=NCc1cccnc1`, the 50% effective concentration (EC50) was 1.83 µM.
For `O=C(O)c1cnc(-c2ccccc2)nc1Sc1ccccc1Cl` the value was > 16 µM (inactive); for `NCC(c1ccc(Cl)cc1Cl)c1c[nH]c2ccccc12` (centres undefined), > 16 µM (inactive); for `O=C(Nc1ccc(OCc2ccccc2Cl)cc1)c1cccnc1`, 3.71 µM.
`Cc1ccc(C)c(/C=C/C(=O)c2ccccc(=O)c2O)c1`: the EC50 is 1.99 µM.
As for `COCCSc1nnc(NC(=O)CCS(=O)(=O)c2ccccc2)s1`, the EC50 is 1.86 µM.
Turning to `CSCCC1NC2(C(=O)Nc3c(C)cc(Cl)cc32)[C@@H]2C(=O)N(C3CCCC3)C(=O)[C@H]12` (some centres undefined), the 50% effective concentration (EC50) is 10.1 µM.
For `Cc1ccc(SCCC(=O)N/N=C/c2ccccc2O)cc1` the value was 14 µM; for `O=C(Cc1nc2ccccc2s1)c1ccc(O)cc1O`, 2.86 µM; for `O=c1[nH]n2c(C(F)(F)F)cc(C3CC3)nc2c1N=Nc1ccccc1`, 4.25 µM.
For `COCc1nnc(NC(=O)c2ccc(S(=O)(=O)N3CCCc4ccccc43)cc2)o1` the value was 10.5 µM; for `CC(=O)NNC(=S)NC(=O)C(c1ccccc1)c1ccccc1`, 3.19 µM.
For the compound `O=Cc1cc(N=Nc2ccccc2Cl)ccc1O`, the EC50 is 6.39 µM.
For `O=C(O)c1ccc(-c2nc(-c3ccc(Cl)cc3)cs2)cc1` the value was 3.42 µM.
Regarding `O=C(CCS(=O)(=O)c1ccc(F)cc1)Nc1nc(-c2ccncc2)cs1`, the EC50 was 1.49 µM.
For `CC1CCCCN1S(=O)(=O)c1ccc(NC(=O)c2cccc(-n3cnnn3)c2)cc1` (centres undefined) the value was > 15 µM (inactive).
`COc1ccc(-c2c[n+]3c(n2-c2ccccc2)CCCCC3)cc1`: the EC50 is 9.58 µM.
As for `O=C(Nc1cc(F)cc(F)c1)c1ccc(NCCCN2CCCCCC2)c([N+](=O)[O-])c1`, the EC50 was > 16 µM (inactive).
With `Cc1ccc(S(=O)(=O)c2ncccc2[N+](=O)[O-])cc1`, the EC50 is 1.09 µM.
For the compound `CCOC(=O)c1ccccc1OCc1cc(/C=N/n2cnnc2)ccc1OC`, the EC50 is > 15 µM (inactive).
Take `O=C(c1ccc(Cn2c(=O)[nH]c3ccccc3c2=O)cc1)N1CCN(c2ccc(F)cc2)CC1`: the concentration for a half-maximal effect (EC50) was 3.25 µM.
`CCOc1ccccc1C1C2=C(COC2=O)Nc2cc3c(cc21)OCO3` (centres undefined): the EC50 is > 16 µM (inactive).
With `Nc1nonc1-n1nnc(C(=O)N/N=C/c2cc(Br)ccc2O)c1CNc1ccccc1`, the half-maximal effective concentration (EC50) was 0.634 µM.
The figure for `CC(C(=O)c1ccccc1)[n+]1cccc(Br)c1` (centres undefined) is > 15 µM (inactive); for `COc1ccc2[nH]c3c(C)c4ccncc4c(C)c3c2c1` it is 1.44 µM.
As to `CNC(=S)/N=C/NOCc1ccc(Cl)cc1Cl`, the half-maximal effective concentration (EC50) is 0.46 µM.
Consider `CCC1=NN(C(=O)c2ccccc2O)C(O)(c2ccccc2)C1` (centres undefined), for which the EC50 is 7.37 µM.
As for `Cc1cccc(N2CCc3c2nc2ccc(Br)cc2c3N)c1`, the EC50 is 1.61 µM.
For `O=C(N/N=C/c1cc([N+](=O)[O-])ccc1O)/C(=C\c1cccs1)NC(=O)c1ccccc1` the value was 3.59 µM.
In the case of `CCOC(=O)N1C(=O)C2(CCCCC2)N(c2ccccc2Cl)C1=S`, the EC50 was 1.99 µM.
Take `CCOc1ccc(C(=O)Nc2ccc(Cc3ccncc3)cc2)cc1Br`: the EC50 was 3.64 µM.
Turning to `FC(F)(F)COc1nc(OCC(F)(F)F)nc(N2CCN(c3ccccc3)CC2)n1`, the EC50 is > 16 µM (inactive).
`Cc1ccsc1C(=O)OCC(=O)Nc1nnc(-c2ccccc2)o1`: the EC50 is 3.12 µM.
Consider `CCN1/C(=C/c2cccc[n+]2C)Sc2ccc(OC)cc21`, for which the EC50 was 10.7 µM.
As to `CC(C)c1ccc(OCC(=O)Nc2cccc(C(=O)Nc3ccccc3C(=O)O)c2)cc1`, the EC50 is > 15 µM (inactive).
For `CC(C)(C)C(=O)NC(=S)NNC(=O)c1ccc(-c2ccccc2)cc1` the value was below 0.12 µM; for `Cc1ccc(-n2c(Cc3ccccc3)n[nH]c2=S)c(C)c1`, 0.803 µM.
For `O=[N+]([O-])c1cc(CN2CCN(c3ccccc3)CC2)c(O)c2ncccc12`, the half-maximal effective concentration (EC50) was 0.335 µM.
Take `CC(C)(C)C1CCC(OC(=O)C[N+]2(C)CCCCC2)CC1` (centres undefined): the EC50 was 11.3 µM.
`Cc1ccc(Nc2nc(CSc3nnc(-c4ccncc4)n3-c3ccccc3C)cs2)cc1`: the EC50 is > 16 µM (inactive).
Consider `CCc1ccc(OCC(=O)NNC(=S)NC(=O)C2CC2)c(Br)c1`, for which the EC50 was 1.19 µM.
As for `COc1ccc(C(=O)NC(=S)NNC(=O)CCc2ccccc2)cc1`, the 50% effective concentration (EC50) is 3.21 µM.
The figure for `COc1cc(C(=O)NC(=S)N(CCc2ccccc2)CCc2ccccc2)cc(OC)c1OC` is 1.82 µM.
As to `CCOC(=O)c1ccc(-c2ccc(C3Nc4ccccc4C(=O)N3O)o2)cc1` (centres undefined), the EC50 is 5.63 µM.
Turning to `CCCCN(C)S(=O)(=O)c1ccc(C(=O)Nc2nnc(-c3cccs3)o2)cc1`, the EC50 is > 15 µM (inactive).
For the compound `CCCOc1ccc(C(=O)NNC(=S)NC(=O)CC)cc1`, the EC50 is 0.937 µM.
`CCCCOc1ccc(C(=O)NNC(=S)NC(=O)CC)cc1`: the half-maximal effective concentration (EC50) is 0.858 µM.
For `Cc1cccc(C(=O)NNC(=S)NC(=O)c2cccs2)c1` the value was 1.46 µM; for `COc1cccc(NC(=O)c2ccc3nc(C)sc3c2)c1`, 1.49 µM; for `O=C(NNC(=S)NC(=O)c1ccc(Br)cc1)c1ccc([N+](=O)[O-])cc1`, 0.416 µM.
On to `Cc1cccc(NC(=S)NNC(=O)c2cc3c(s2)CCC(C)C3)c1C` (centres undefined), for which the EC50 is 1.37 µM.
For `CCOC(=O)C(=Cc1cc(=O)c(OC)co1)C(=O)OCC` the value was 0.331 µM; for `NC(=S)n1[nH]c(-c2ccc([N+](=O)[O-])cc2)c(N=Nc2cccc([N+](=O)[O-])c2)c1=O`, 2.83 µM; for `NC(=O)CC12CC3CC(C1)CC(CC(N)=O)(C3)C2`, > 16 µM (inactive).
Take `O=C(Cc1ccc([N+](=O)[O-])cc1)NNC(=O)c1ccc2c(c1)OCO2`: the EC50 was > 15 µM (inactive).
As for `CC(Nc1ncnc2ccccc12)c1ccccc1` (centres undefined), the EC50 is 0.606 µM.
With `Cc1nn(-c2ccccc2)c(N)c1N=Nc1ccc(Cl)cc1`, the EC50 was 7.76 µM.
Turning to `COc1cc(/C=C(\C#N)c2nc3ccccc3s2)cc([N+](=O)[O-])c1O`, the EC50 was > 15 µM (inactive).
Regarding `CCCCNC(=O)c1cn(C)c2ccc(S(=O)(=O)N3CCCC3)cc2c1=O`, the EC50 was > 15 µM (inactive).
In the case of `Cc1cccc2sc(NNC(=O)c3cc(-c4cccs4)nc4ccccc34)nc12`, the EC50 is 0.583 µM.
For `C/C(=N\N1C(=O)CSC1=S)c1ccc(Br)cc1` the value was 11.9 µM; for `COc1ccc(C2Nc3ccccc3C(=O)N2O)cc1OC` (centres undefined), > 15 µM (inactive); for `CCSc1nnc(-c2ccc(C)cc2)c2ccccc12`, 0.193 µM.
As for `Cc1cccc(C(=O)NNC2=C(C(=O)C(F)(F)F)CCC2)c1O`, the EC50 was 1.23 µM.
For `N/C(Cc1ccc(Cl)c(Cl)c1)=N\OC(=O)c1cccs1`, the concentration for a half-maximal effect (EC50) was 0.893 µM.
As for `CCOC(=O)c1cc([N+](=O)[O-])c([N+](=O)[O-])cc1NC(C)=O`, the EC50 was 0.692 µM.
In the case of `O=C(NNC(=S)NC(=O)c1ccccc1[N+](=O)[O-])c1ccc(Cl)cc1Cl`, the EC50 was 1.87 µM.
For the compound `C(=N\NC1=Nc2cccc3cccc1c23)/c1ccccn1`, the EC50 was > 16 µM (inactive).
Take `O=C(/C=C/c1cccs1)NC(=S)NNC(=O)c1ccccc1O`: the concentration for a half-maximal effect (EC50) is 8.54 µM.
As for `Cc1ccc(-c2nc3ccc(Cl)cc3c(=O)n2O)cc1`, the half-maximal effective concentration (EC50) was 2.16 µM.
As for `C=C1C(=O)O[C@@H]2C[C@@H](C)[C@@H]3C4OC4C(=O)[C@@]3(C)[C@@H](O)[C@H]12` (some centres undefined), the concentration giving a half-maximal response (EC50) is 0.219 µM.
As to `O=c1c2cc(Br)ccc2nc(-c2ccccc2)n1O`, the concentration giving a half-maximal response (EC50) was 2.08 µM.
Consider `CCOC(=O)C1CCN(Cc2ccc(O)c3ncccc23)CC1`, for which the EC50 is > 15 µM (inactive).
As to `O=CNCCCc1nc2ccccc2n1Cc1cccc2ccccc12`, the EC50 was 3.52 µM.
For `N#Cc1ccc(-c2nc3cc(Cl)ccc3c(=O)n2O)cc1` the value was 3.57 µM.
The figure for `O=C(CN1CCCc2ccccc21)N/N=C/c1c(O)ccc2ccccc12` is 1.2 µM; for `O=C(COc1ccc2c(c1)CCC2)NCc1cccc(Cl)c1` it is 10.9 µM.
Regarding `CSc1nc(Cl)c(C#N)c(-c2ccc(C)cc2)n1`, the half-maximal effective concentration (EC50) is 2.84 µM.
For `CN1CCc2cc3c(c4c2C1Cc1ccccc1-4)OCO3` (centres undefined), the EC50 was > 15 µM (inactive).
For `COc1cccc(C(=O)Oc2c(CN3CCOCC3)cc(Cl)c3cccnc23)c1` the value was 1.95 µM; for `Cc1[nH]c2ccccc2c1/C=C/c1cc[n+](C)cc1`, 7.18 µM; for `CC(C)CCOC(=O)C[N+](C)(C)CCOC1CC2CCC1(C)C2(C)C` (centres undefined), 3.05 µM.
For `CCCn1c(Nc2nc3ccccc3n2C)nc2ccccc21`, the concentration for a half-maximal effect (EC50) is 1.17 µM.
For `CC[n+]1c(/C=C/N(C)c2ccccc2)n(-c2ccccc2)c2ccc(-c3nc4ccccc4s3)cc21` the value was 1.2 µM; for `O=S(=O)(c1ccc(Cl)s1)N1CCCc2cccc(O)c21`, > 15 µM (inactive).
As for `CC(C)Cc1nc2oc3c(=O)[nH]cnc3c2c2c1CCCC2`, the EC50 is 0.297 µM.
With `CN1CCN(Cc2cc(COCc3ccccc3)c3cccnc3c2O)CC1`, the EC50 is 1.46 µM.
Turning to `O=c1c2cc(Br)ccc2nc(-c2cccc(C(F)(F)F)c2)n1O`, the EC50 was 1.04 µM.
In the case of `CCCCCCOC(=O)C[N+](C)(C)CCOC1CC2CCC1(C)C2(C)C` (centres undefined), the EC50 was 1.16 µM.
For the compound `Cc1c(N=NC2=C(O)CC(C)(C)CC2=O)c(=O)n(-c2ccccc2)n1C`, the concentration giving a half-maximal response (EC50) was 14 µM.
Turning to `C=C(C)COc1ccc(-c2n[nH]c(C)c2-c2ccccc2)c(O)c1`, the EC50 is 4.29 µM.
As to `C=CCOC(=O)c1sc(NC(=O)c2ccco2)nc1C`, the EC50 is 0.348 µM.
Regarding `O=C(COc1ccc(Cl)cc1)NC1CCSC1=O` (centres undefined), the EC50 was > 16 µM (inactive).
For `COc1ccc(OC)c(NC(=O)c2c3c(nc4ccccc24)CCC3)c1` the value was 6.61 µM.
For the compound `Cc1cc(NC(c2ccc(Cl)cc2)c2ccc3cccnc3c2O)no1` (centres undefined), the EC50 is 0.598 µM.
On to `O=C(CSc1cccc[n+]1[O-])CSc1cccc[n+]1[O-]`, for which the EC50 was 13.4 µM.
